{"source": "patent US5633229A", "about": "“Method of using prophenins-antibiotic peptides” (University of California, priority 1995, dated 1997)", "key": {"C. albicans, strain 820": {"test_system": "C. albicans, strain 820", "assay": "radial diffusion assay in agarose gels, C. albicans", "format": "cell-based", "conditions": "for inhibitory activity against C. albicans (FIG. 4c): result in words; for minimal microbicidal concentration: Target C. albicans", "experimental": "(§1) Aliquots (66 μl ) of each fraction were dried by vacuum centrifugation, and resuspended in approximately 6.6 μl of 0.01% acetic acid. Five μl samples of this concentrate were tested for antimicrobial activity against E. coli ML-35, L. monocytogenes, Strain EGD and C. albicans, strain 820 by radial diffusion and gel overlay techniques (Lehrer, R. I. et al. J Immunol Meth (1991) 137:167-173). Active fractions were further examined by acid-urea PAGE and SDS-PAGE. Prophenins emerged from the P10 column in fractions 38-43 (39.6 ml total volume), which contained a total of 18 mg protein BCA analysis.\n(§2) The radial diffusion assay in agarose gels as described above was also used to test the activity of the purified prophenins. Samples of 5 μL each were added to 3 mm wells in thin gels composed of 10 mM sodium phosphate, 30 mg/ml trypticase soy broth powder in 1% agarose and containing approximately 4×10^5 CFU/ml of mid-log phase organisms. After allowing 3 hours for the samples to diffuse into the underlayer gel, a nutrient-rich overlay gel was poured and the plates were incubated for 24 hours at 37° C. to allow surviving organisms to form microcolonies. The diameters of the clear zones were measured and expressed in \"units\" (10 units=1 mm) as described previously."}, "[1]": {"test_system": "L. monocytogenes, Strain EGD", "assay": "radial diffusion assay in agarose gels, L. monocytogenes", "format": "cell-based", "conditions": "Target L. monocytogenes", "experimental": "as §1, §2"}, "E. coli ML-35": {"test_system": "E. coli ML-35", "assay": "radial diffusion assay in agarose gels, E. coli", "format": "cell-based", "conditions": "for minimal microbicidal concentration: Target E. coli", "experimental": "as §1, §2"}, "[2]": {"test_system": "lipid polysaccharide (LPS) of the Gram-negative bacterium E. coli strain 0.55B5", "assay": "Limulus amebocyte lysate (LAL) test for endotoxin binding", "format": "biochemical", "parameters": "key to LPS-induced gel formation of E-TOXATE (Table 3): ++: a solid gel (no inhibition); +: increased viscosity without solid gel formation (partial inhibition); 0: gelation was absent (complete inhibition)", "conditions": "for LPS-induced gel formation of E-TOXATE (Table 3): 60 minutes at 37° C.", "experimental": "The prophenins of the invention were tested for their ability to bind the lipid polysaccharide (LPS) of the Gram-negative bacterium E. coli strain 0.55B5. The assay was the Limulus amebocyte lysate (LAL) test for endotoxins conducted in the presence and absence of the test compounds. The test was conducted using the procedure described in Sigma Technical Bulletin No. 210 as revised in Dec. 1992 and published by Sigma Chemical Company, St. Louis, Mo.\nThe LAL test is based on the ability of LPS to effect gelation in the commercial reagent E-TOXATE™ which is prepared from the lysate of circulating amebocytes of the Horseshoe Crab Limulus polyphemus. As described in the technical bulletin, when exposed to minute quantities of LPS, the lysate increases in opacity as well as viscosity and may gel or clot depending on the concentration of endotoxin. The technical bulletin goes on to speculate that the mechanism appears analogous to the clotting of mammalian blood and involves the steps of activation of a trypsin-like preclotting enzymes by the LPS in the presence of calcium ion, followed by enzymic modifications of a \"coagulogen\" by proteolysis to produce a clottable protein. These steps are believed tied to the biologically active or \"pyrogenic\" portion of the molecule. It has been shown previously that detoxified LPS (or endotoxin) gives a negative LAL test.\nIn the assay, the amounts of prophenin-1 and polymyxin B (78% free polymyxin, Sigma) were preincubated in a final volume of 0.2 ml and the test mixtures contained LPS at a final concentration of 0.05 endotoxin unit/ml and E-TOXATE™ at the same concentration. The test compounds were incubated together with the LPS for 15 minutes before the E-TOXATE™ was added to a final volume (after E-TOXATE™ addition) of 0.2 ml. The tubes were then incubated for 60 minutes at 37° C. and examined for the formation of a gel."}}, "note": "Where no end group is shown, it is not given here.", "data": [{"substance": "HNP-1: human defensin (HNP-1), control", "values": [{"measurement": "inhibitory activity against C. albicans (FIG. 4c)", "setting": "C. albicans, strain 820", "result": "substantially noninhibitory"}]}, {"substance": "HNP-2: column head of Table 2; probably the human defensin control named HNP-1 in the text (CYCRIPACIAGERRYGTCIYQGRLWAFCC; ends and bridges not checked; cysteine pairing not given here; UniProt P59665 66-94, looked up)", "values": [{"measurement": "minimal microbicidal concentration", "setting": "[1]", "result": 12.0, "unit": "µg/mL"}, {"measurement": "minimal microbicidal concentration", "setting": "E. coli ML-35", "result": 80.0, "unit": "µg/mL"}, {"measurement": "minimal microbicidal concentration", "setting": "C. albicans, strain 820", "result": "> 150", "unit": "µg/mL"}]}, {"substance": "PG-3: protegrin-3 (PG3), control (RGGGLCYCRRRFCVCVGR; ends and bridges not checked; cysteine pairing not given here; UniProt P32196 131-148, looked up)", "values": [{"measurement": "minimal microbicidal concentration", "setting": "[1]", "result": 9.0, "unit": "µg/mL"}, {"measurement": "minimal microbicidal concentration", "setting": "E. coli ML-35", "result": 8.6, "unit": "µg/mL"}, {"measurement": "inhibitory activity against E. coli ML-35 (FIG. 4a)", "setting": "E. coli ML-35; result in words", "result": "more inhibitory than HNP-1"}, {"measurement": "minimal microbicidal concentration", "setting": "C. albicans, strain 820", "result": 6.9, "unit": "µg/mL"}, {"measurement": "inhibitory activity against C. albicans (FIG. 4c)", "setting": "C. albicans, strain 820", "result": "successful antifungals"}]}, {"substance": "Polymyxin B", "values": [{"measurement": "concentration giving complete inhibition of gelation", "setting": "[2]; LAL test, LPS 0.05 endotoxin unit/ml", "result": 5, "unit": "µg/mL"}, {"measurement": "concentration giving complete inhibition of gelation, molar", "setting": "[2]; LAL test, converted from μg/ml", "result": "≈ 4.2 μM"}, {"measurement": "LPS-induced gel formation of E-TOXATE (Table 3)", "setting": "[2]; peptide 0.16 μg/ml, LPS 0.05 endotoxin unit/ml", "result": "++"}, {"measurement": "LPS-induced gel formation of E-TOXATE (Table 3)", "setting": "[2]; peptide 0.31 μg/ml, LPS 0.05 endotoxin unit/ml", "result": "++"}, {"measurement": "LPS-induced gel formation of E-TOXATE (Table 3)", "setting": "[2]; peptide 0.63 μg/ml, LPS 0.05 endotoxin unit/ml", "result": "++"}, {"measurement": "LPS-induced gel formation of E-TOXATE (Table 3)", "setting": "[2]; peptide 1.25 μg/ml, LPS 0.05 endotoxin unit/ml", "result": "++"}, {"measurement": "LPS-induced gel formation of E-TOXATE (Table 3)", "setting": "[2]; peptide 2.5 μg/ml, LPS 0.05 endotoxin unit/ml", "result": "+"}, {"measurement": "LPS-induced gel formation of E-TOXATE (Table 3)", "setting": "[2]; peptide 5.0 μg/ml, LPS 0.05 endotoxin unit/ml", "result": 0}, {"measurement": "LPS-induced gel formation of E-TOXATE (Table 3)", "setting": "[2]; peptide 10.0 μg/ml, LPS 0.05 endotoxin unit/ml", "result": 0}]}]}
